ChEMBL document CHEMBL1147055, “Noxious compounds activate TRPA1 ion channels through covalent modification of cysteines” (Nature, 2007)
Calls of active or inactive are those of the source. The calls are words filed in the database; no cut-off is given here.

How the values were obtained:
[1] = target: Transient receptor potential cation channel subfamily A member 1 (Mus musculus) (UniProt Q8BLA8); assay: Activation of mouse TRPA1 expressed in CHO cells assessed as increase in intracellular calcium level; assay type: cell-based
Sequence of Transient receptor potential cation channel subfamily A member 1 (Mus musculus) (Q8BLA8 whole entry): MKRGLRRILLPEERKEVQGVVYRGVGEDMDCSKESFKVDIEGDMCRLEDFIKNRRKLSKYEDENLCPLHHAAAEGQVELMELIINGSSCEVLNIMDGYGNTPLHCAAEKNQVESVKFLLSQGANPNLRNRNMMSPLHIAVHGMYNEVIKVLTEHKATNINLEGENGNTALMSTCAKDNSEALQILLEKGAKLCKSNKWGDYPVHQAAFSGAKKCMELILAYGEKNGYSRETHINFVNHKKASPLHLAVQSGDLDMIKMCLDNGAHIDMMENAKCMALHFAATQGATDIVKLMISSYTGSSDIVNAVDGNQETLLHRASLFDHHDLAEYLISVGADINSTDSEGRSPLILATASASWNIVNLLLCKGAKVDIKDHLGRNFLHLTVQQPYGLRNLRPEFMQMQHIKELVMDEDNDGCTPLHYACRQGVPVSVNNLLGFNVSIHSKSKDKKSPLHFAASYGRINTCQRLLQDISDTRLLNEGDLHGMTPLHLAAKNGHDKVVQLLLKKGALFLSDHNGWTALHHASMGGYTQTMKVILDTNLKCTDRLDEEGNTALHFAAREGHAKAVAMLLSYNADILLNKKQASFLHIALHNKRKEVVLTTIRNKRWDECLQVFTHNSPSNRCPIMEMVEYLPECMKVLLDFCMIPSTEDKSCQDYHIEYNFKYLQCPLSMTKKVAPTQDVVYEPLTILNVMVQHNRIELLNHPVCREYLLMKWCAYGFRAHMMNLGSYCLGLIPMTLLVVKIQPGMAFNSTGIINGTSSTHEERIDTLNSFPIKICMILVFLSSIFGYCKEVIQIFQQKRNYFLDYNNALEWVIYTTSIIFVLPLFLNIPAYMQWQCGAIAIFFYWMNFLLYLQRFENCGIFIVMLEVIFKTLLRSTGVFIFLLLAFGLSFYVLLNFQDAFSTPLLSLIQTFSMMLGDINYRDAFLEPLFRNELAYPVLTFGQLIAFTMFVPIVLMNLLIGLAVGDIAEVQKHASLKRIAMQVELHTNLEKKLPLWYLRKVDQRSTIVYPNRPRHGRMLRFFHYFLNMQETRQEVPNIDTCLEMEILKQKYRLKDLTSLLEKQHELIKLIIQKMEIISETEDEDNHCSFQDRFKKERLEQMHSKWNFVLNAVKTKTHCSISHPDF

[2] = target: Transient receptor potential cation channel subfamily A member 1 (Mus musculus) (UniProt Q8BLA8); assay: Activation of mouse TRPA1 expressed in HEK293T cells at 30 uM assessed as activation of cation conductance by electrophysiology; assay type: cell-based; settings: HEK-293T
[3] = target: Transient receptor potential cation channel subfamily A member 1 (Homo sapiens, UniProt O75762); assay: Activation of TRPA1
Sequence of Transient receptor potential cation channel subfamily A member 1 (O75762 whole entry): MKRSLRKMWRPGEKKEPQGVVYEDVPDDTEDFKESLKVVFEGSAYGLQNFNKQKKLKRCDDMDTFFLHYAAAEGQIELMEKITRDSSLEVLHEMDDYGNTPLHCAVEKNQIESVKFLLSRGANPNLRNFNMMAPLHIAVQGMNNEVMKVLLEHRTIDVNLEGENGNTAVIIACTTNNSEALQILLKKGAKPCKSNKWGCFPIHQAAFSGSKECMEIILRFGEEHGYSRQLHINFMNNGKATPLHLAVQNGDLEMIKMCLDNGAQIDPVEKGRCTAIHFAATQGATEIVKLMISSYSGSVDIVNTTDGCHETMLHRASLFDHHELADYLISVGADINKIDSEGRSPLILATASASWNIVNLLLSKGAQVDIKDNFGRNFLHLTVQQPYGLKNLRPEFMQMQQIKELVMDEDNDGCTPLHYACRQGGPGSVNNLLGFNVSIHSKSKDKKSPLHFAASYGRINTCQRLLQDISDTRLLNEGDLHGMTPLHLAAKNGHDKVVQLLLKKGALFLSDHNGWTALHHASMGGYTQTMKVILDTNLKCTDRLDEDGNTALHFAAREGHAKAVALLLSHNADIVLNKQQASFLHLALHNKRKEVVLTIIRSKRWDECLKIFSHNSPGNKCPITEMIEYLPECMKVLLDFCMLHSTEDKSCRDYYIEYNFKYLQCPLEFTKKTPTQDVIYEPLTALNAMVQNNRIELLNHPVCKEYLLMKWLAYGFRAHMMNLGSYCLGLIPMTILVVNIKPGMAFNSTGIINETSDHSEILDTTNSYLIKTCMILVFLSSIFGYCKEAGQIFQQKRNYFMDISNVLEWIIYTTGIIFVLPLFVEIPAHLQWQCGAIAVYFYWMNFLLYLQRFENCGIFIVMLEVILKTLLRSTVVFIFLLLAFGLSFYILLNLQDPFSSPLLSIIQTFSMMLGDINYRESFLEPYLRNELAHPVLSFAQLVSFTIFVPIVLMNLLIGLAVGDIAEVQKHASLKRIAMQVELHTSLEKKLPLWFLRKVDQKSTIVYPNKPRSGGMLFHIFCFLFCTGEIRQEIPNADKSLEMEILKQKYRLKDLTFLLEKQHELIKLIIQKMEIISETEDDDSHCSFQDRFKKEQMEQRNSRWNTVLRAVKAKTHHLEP

[4] = target: Transient receptor potential cation channel subfamily A member 1 (Mus musculus) (UniProt Q8BLA8); assay: Binding affinity to mouse TRPA1 expressed in HEK293T cells at 100 uM assessed as covalent protein modification; assay type: cell-based; settings: HEK-293T
[5] = target: Transient receptor potential cation channel subfamily A member 1 (Mus musculus) (UniProt Q8BLA8); assay: Reversal of activation of mouse TRPA1 expressed in HEK293T cells at 400 uM in presence of dithiothreitol by electrophysiology; assay type: cell-based; settings: HEK-293T
[6] = test system: Transient receptor potential cation channel subfamily A member 1 (Mus musculus), Q8BLA8 [C622S]; assay: Activation of mouse TRPA1 C622S mutant expressed in CHO cells at 100 uM by calcium imaging FLIPR assay; assay type: cell-based
Sequence of Transient receptor potential cation channel subfamily A member 1 (Mus musculus), Q8BLA8 [C622S] (Q8BLA8 whole entry C622S): as the sequence (Q8BLA8 whole entry) above, with C622S counted along it

[7] = test system: Transient receptor potential cation channel subfamily A member 1 (Mus musculus), Q8BLA8 [C415S]; assay: Activation of mouse TRPA1 C415S mutant expressed in CHO cells at 100 uM by calcium imaging FLIPR assay; assay type: cell-based
Sequence of Transient receptor potential cation channel subfamily A member 1 (Mus musculus), Q8BLA8 [C415S] (Q8BLA8 whole entry C415S): as the sequence (Q8BLA8 whole entry) above, with C415S counted along it

[8] = test system: Transient receptor potential cation channel subfamily A member 1 (Mus musculus), Q8BLA8 [C422S]; assay: Activation of mouse TRPA1 C422S mutant expressed in CHO cells at 100 uM by calcium imaging FLIPR assay; assay type: cell-based
Sequence of Transient receptor potential cation channel subfamily A member 1 (Mus musculus), Q8BLA8 [C422S] (Q8BLA8 whole entry C422S): as the sequence (Q8BLA8 whole entry) above, with C422S counted along it

[9] = target: Transient receptor potential cation channel subfamily A member 1 (Mus musculus) (UniProt Q8BLA8); assay: Activation of mouse TRPA1 expressed in HEK293T cells at 100 uM assessed as activation of cation conductance by electrophysiology; assay type: cell-based; settings: HEK-293T
[10] = target: Transient receptor potential cation channel subfamily A member 1 (Mus musculus) (UniProt Q8BLA8); assay: Activation of mouse TRPA1 expressed in HEK293T cells at 50 uM in presence of dithiothreitol by electrophysiology; assay type: cell-based; settings: HEK-293T
[11] = target: Transient receptor potential cation channel subfamily A member 1 (Mus musculus) (UniProt Q8BLA8); assay: Activation of mouse TRPA1 expressed in HEK293T cells at 50 uM assessed as activation of cation conductance by electrophysiology; assay type: cell-based; settings: HEK-293T
[12] = target: Transient receptor potential cation channel subfamily A member 1 (Mus musculus) (UniProt Q8BLA8); assay: Activation of mouse TRPA1 expressed in CHO cells at 100 uM by calcium imaging FLIPR assay; assay type: cell-based

C=CCN=C=S
Activity [1]: Active | Activity [2]: Active

CC(=O)CC1(O)C(=O)N(C)c2ccccc21 (stereo not drawn)
Activity [3]: inactive

C#CCN1C(=O)/C(=C/C(C)=O)c2ccccc21
EC50 [3]: 0.1 µM | Activity [4]: Active

CS(=O)(=O)SCCN
EC50 [3]: 1.58 µM | Activity [1]: Active | Activity [5]: Active

C#CCCCCNC(=O)CI [IODOACETAMIDE ALKYNE]
EC50 [3]: 134 µM | Activity [4]: Active

O=C/C=C/c1ccccc1
EC50 [3]: 19 µM | Activity [6]: inactive | Activity [7]: inactive | Activity [8]: inactive

CC/C=C/C=O [PENTENAL]
EC50 [3]: 5 µM

CCC=O
Activity [3]: inactive

O=C1NC(c2cccc([N+](=O)[O-])c2)=CCN1c1ccccc1O
Activity [9]: Active

CC(=O)/C=C1/C(=O)N(C)c2ccccc21
EC50 [3]: 0.8 µM | Activity [1]: Active | Activity [10]: Active | Activity [11]: Active

C=CC=O [ACROLEIN]
EC50 [3]: 5 µM

NC(=O)CI [IODOACETAMIDE]
EC50 [3]: 357 µM | Activity [1]: Active

O=C1CCC(=O)N1O
Activity [12]: inactive

OC/C=C/c1ccccc1
Activity [3]: inactive

C#CCN=C=S [PROPARGYL ISOTHIOCYANATE]
EC50 [3]: 18.4 µM | Activity [4]: Active
